Measured values taken from US20260215423A1, “NOVEL CARBOXAMIDE AND SULFONAMIDE PESTICIDAL COMPOUNDS” (SYNGENTA CROP PROTECTION AG, priority 2023, published 2026).

Experiments:
Type in all cases: in vivo
[1] = test system: Myzus persicae (Green Peach Aphid); experiment: Myzus persicae (Green Peach Aphid). Intrinsic Activity; details: 120 h, test rate of 12 ppm, mixed with sucrose solution, feeding through Parafilm, 5 days after infestation
Description: Example B7: Myzus persicae (Green Peach Aphid). Intrinsic Activity
Test compounds prepared from 10′000 ppm DMSO stock solutions were applied by pipette into 24-well microtiter plates and mixed with sucrose solution. The plates were closed with a stretched Parafilm. A plastic stencil with 24 holes was placed onto the plate and infested pea seedlings were placed directly on the Parafilm. The infested plate was closed with a gel blotting paper and another plastic stencil and then turned upside down. The samples were assessed for mortality 5 days after infestation.

[2] = test system: Myzus persicae (Green Peach Aphid); experiment: Myzus persicae (Green Peach Aphid) Feeding/Contact Activity, eggplant leaf discs; details: foliar, 144 h, application rate of 200 ppm, eggplant leaf discs sprayed, aphid population of mixed ages, 6 days after infestation, read-out: growth inhibition
Description: Example B8: Myzus persicae (Green Peach Aphid) Feeding/Contact Activity Eggplant leaf discs were placed onto agar in a 24-well microtiter plate and sprayed with aqueous test solutions prepared from 10′000 ppm DMSO stock solutions. After drying, the leaf discs were infested with an aphid population of mixed ages. […]

[3] = test system: Diabrotica balteata (Corn root worm); experiment: Diabrotica balteata (Corn root worm); details: 96 h, application rate of 200 ppm, maize sprouts sprayed, L2 larvae, 4 days after infestation, read-out: effect in at least one of the two categories (mortality or growth inhibition)
Protocol: Example B2: Diabrotica balteata (Corn root worm)
Maize sprouts placed onto an agar layer in 24-well microtiter plates were treated with aqueous test solutions prepared from 10′000 ppm DMSO stock solutions by spraying. After drying, the plates were infested with L2 larvae (6 to 10 per well). The samples were assessed for mortality and growth inhibition in comparison to untreated samples 4 days after infestation.

[4] = test system: Plutella xylostella (Diamond back moth); experiment: Plutella xylostella (Diamond back moth); details: 192 h, application rate of 200 ppm, artificial diet treated by pipetting, Plutella eggs, 8 days after infestation, read-out: effect in at least one of the two categories (mortality or growth inhibition)
Protocol: After drying, Plutella eggs were pipetted through a plastic stencil onto a gel blotting paper and the plate was closed with it. The samples were assessed for mortality and growth inhibition in comparison to untreated samples 8 days after infestation.

| SMILES | mortality at 12 ppm [1] | inhibition at 200 ppm [2] | percent effect (mortality or growth inhibition) at 200 ppm [3] | percent effect (mortality or growth inhibition) at 200 ppm [4] |
| --- | --- | --- | --- | --- |
| CCC(=O)NCc1cc(OC[C@H](C)NS(=O)(=O)C(Cl)Cl)ccc1Cl [P-10] | ≥ 80% |  |  |  |
| C[C@@H](COc1cnc(Cl)c(CNC(=O)C2CCCO2)c1)NS(=O)(=O)C(F)(F)F (some centres unmarked) [P-27] |  | ≥ 80% |  |  |
| CCC(=O)NCc1cc(OC[C@H](C)NS(=O)(=O)c2cnc(Cl)c(Cl)c2)ccc1Cl [P-13, N-[[2-chloro-5-[(2S)-2-[(5,6-dichloro-3-pyridyl)sulfonylamino]propoxy]phenyl]meth-yl]propanamide] |  |  | ≥ 80% | ≥ 80% |
| CCC(=O)NCc1cc(OC[C@H](C)NS(=O)(=O)C(F)F)ccc1Cl [P-11] | ≥ 80% |  |  | ≥ 80% |
| C[C@@H](COc1cnc(Cl)c(CNC(=O)C(F)(Cl)Cl)c1)NS(=O)(=O)C(F)(F)F [P-29, 2,2-dichloro-N-[[2-chloro-5-[(2S)-2-(trifluoromethylsul-fonylamino)propoxy]-3-pyridyl]methyl]-2-fluoro-acetamide] |  | ≥ 80% |  |  |
| C[C@@H](COc1cnc(Cl)c(CNC(=O)C(F)F)c1)NS(=O)(=O)C(F)(F)F [P-32, N-[[2-chloro-5-[(2S)-2-(trifluoromethylsul-fonylamino)propoxy]-3-pyridyl]methyl]-2,2-difluoro-acetamide] | ≥ 80% |  |  |  |
| COCC(=O)NCc1cc(OC[C@H](C)N(C(=O)COC)S(=O)(=O)C(F)(F)F)ccc1Cl [P-16, N-[[2-chloro-5-[(2S)-2-[(2-methoxyacetyl)-(trifluoromethylsulfon-yl)amino]propoxy]phenyl]methyl]-2-methoxy-acetamide] | ≥ 80% | ≥ 80% |  |  |
| C[C@@H](COc1ccc(Cl)c(CNC(=O)C2CCC2)c1)N(C(=O)C1CCC1)S(=O)(=O)C(F)(F)F [P-8] | ≥ 80% |  |  | ≥ 80% |
| C[C@@H](COc1cnc(Cl)c(CNC(=O)C2CC2)c1)NS(=O)(=O)C(F)(F)F [P-9, N-[[2-chloro-5-[(2S)-2-(trifluoromethylsulfon-ylamino)propoxy]-3-pyridyl]methyl]cyclo-propanecarboxamide] | ≥ 80% |  |  | ≥ 80% |
| CCC(=O)NCc1cc(OC[C@H](C)NS(=O)(=O)c2ccc(C#N)c(Cl)c2)ccc1Cl [P-12, N-[[2-chloro-5-[(2S)-2-[(3-chloro-4-cyano-phenyl)sulfonylamino]propoxy]phenyl]meth-yl]propanamide] |  |  | ≥ 80% |  |
| C[C@@H](COc1ccc(Cl)c(CNC(=O)C2CCC2)c1)NS(=O)(=O)C(F)(F)F [P-7] | ≥ 80% |  |  | ≥ 80% |
| C[C@@H](COc1cnc(Cl)c(CNC(=O)CC2CC2(Cl)Cl)c1)NS(=O)(=O)C(F)(F)F (some centres unmarked) [P-30] |  | ≥ 80% |  |  |
| C[C@@H](COc1cnc(Cl)c(CNC(=O)CC2CC2)c1)NS(=O)(=O)C(F)(F)F [P-21, N-[[2-chloro-5-[(2S)-2-(trifluoromethylsul-fonylamino)propoxy]-3-pyridyl]methyl]-2-cyclopropyl-acetamide] | ≥ 80% | ≥ 80% |  |  |
| C[C@@H](COc1ccc(Cl)c(CNC(=O)C2CSC2)c1)NS(=O)(=O)C(F)(F)F [P-6] | ≥ 80% |  |  |  |
| C[C@@H](COc1cnc(Cl)c(CNC(=O)C2(C#N)CC2)c1)NS(=O)(=O)C(F)(F)F [P-23, N-[[2-chloro-5-[(2S)-2-(trifluoromethylsul-fonylamino)propoxy]-3-pyridyl]methyl]-1-cyano-cyclopropane-carboxamide] |  | ≥ 80% |  |  |
| CCC(=O)NC1(c2cc(OC[C@H](C)NS(=O)(=O)C(F)(F)F)ccc2Cl)CC1 [P-14, N-[1-[2-chloro-5-[(2S)-2-(trifluoromethylsul-fonylamino)propoxy]phenyl]cyclopropyl] propanamide] |  |  | ≥ 80% |  |
